Laboratory results published in ChEMBL document CHEMBL4387728, “Synthetic glycopeptides reveal specific binding pattern and conformational change at O-mannosylated position of α-dystroglycan by POMGnT1 catalyzed GlcNAc modification” (Bioorg Med Chem, 2019).
Active and inactive are the calls of the source. The calls are words filed in the database; no cut-off is given here. Peptide text beside a SMILES is read from it. * marks the point of attachment. X1 = CC(=O)N[C@H]1[C@H](O[C@H]2[C@@H](O)[C@H](O)[C@@H](CO)O[C@@H]2*)O[C@H](CO)[C@@H](O[C@@H]2O[C@H](CO)[C@H](O)[C@H](O[C@]3(C(=O)O)C[C@H](O)[C@@H](NC(C)=O)[C@H]([C@H](O)[C@H](O)CO)O3)[C@H]2O)[C@@H]1O; X2 = CC(=O)N[C@H]1[C@H](O[C@H]2[C@@H](O)[C@H](O)[C@@H](CO)O[C@@H]2*)O[C@H](CO)[C@@H](O[C@@H]2O[C@H](CO)[C@H](O)[C@H](O)[C@H]2O)[C@@H]1O; Hexanoyl(5-oxo) = CC(=O)CCCC(=O)*

Columns and labels:
[1] = system: Sambucus racemosa subsp. sieboldiana; test: Binding affinity to biotin-labeled Sambucus sieboldiana agglutinin in pH 7.4 Tris buffer by fluorescence microarray method
Homo sapiens [2] = species: Homo sapiens; test: Binding affinity to biotin-labeled human recombinant laminin-2 at 10 ug/ml in 5.6 MES buffer by fluorescence microarray method
[3] = target: Laminin subunit alpha-1 (Homo sapiens) (UniProt P25391); test: Binding affinity to biotin-labeled human recombinant laminin-1 at 10 ug/ml in pH 7.4 Tris buffer by fluorescence microarray method
Homo sapiens [4] = species: Homo sapiens; test: Binding affinity to biotin-labeled human recombinant laminin-2 at 10 ug/ml in pH 7.4 Tris buffer by fluorescence microarray method
Canavalia ensiformis = test: Binding affinity to biotin-labeled Canavalia ensiformis agglutinin in pH 7.4 Tris buffer by fluorescence microarray method
[5] = target: Lactotransferrin (Homo sapiens) (UniProt P02788); test: Binding affinity to biotin-labeled lactoferrin (unknown origin) at 10 ug/ml in pH 7.4 Tris buffer by fluorescence microarray method
Erythrina crista-galli = test: Binding affinity to biotin-labeled Erythrina crista-galli agglutinin in pH 7.4 Tris buffer by fluorescence microarray method
[6] = target: Lactotransferrin (Homo sapiens) (UniProt P02788); test: Binding affinity to biotin-labeled lactoferrin (unknown origin) at 10 ug/ml in pH 5.6 MES buffer by fluorescence microarray method
[7] = Binding affinity to biotin-labeled Agaricus bisporus agglutinin in pH 7.4 Tris buffer by fluorescence microarray method
Datura stramonium = test: Binding affinity to biotin-labeled Datura stramonium agglutinin in pH 7.4 Tris buffer by fluorescence microarray method
Triticum aestivum = test: Binding affinity to biotin-labeled Wheat germ agglutinin in pH 7.4 Tris buffer by fluorescence microarray method
[8] = target: Laminin subunit alpha-1 (Homo sapiens) (UniProt P25391); test: Binding affinity to biotin-labeled human recombinant laminin-1 at 10 ug/ml in pH 5.6 MES buffer by fluorescence microarray method
Maackia amurensis = test: Binding affinity to biotin-labeled Maackia amurensis agglutinin in pH 7.4 Tris buffer by fluorescence microarray method
Arachis hypogaea = test: Binding affinity to biotin-labeled Arachis hypogaea agglutinin in pH 7.4 Tris buffer by fluorescence microarray method

Chain of Laminin subunit alpha-1 (Homo sapiens) (P25391 whole entry): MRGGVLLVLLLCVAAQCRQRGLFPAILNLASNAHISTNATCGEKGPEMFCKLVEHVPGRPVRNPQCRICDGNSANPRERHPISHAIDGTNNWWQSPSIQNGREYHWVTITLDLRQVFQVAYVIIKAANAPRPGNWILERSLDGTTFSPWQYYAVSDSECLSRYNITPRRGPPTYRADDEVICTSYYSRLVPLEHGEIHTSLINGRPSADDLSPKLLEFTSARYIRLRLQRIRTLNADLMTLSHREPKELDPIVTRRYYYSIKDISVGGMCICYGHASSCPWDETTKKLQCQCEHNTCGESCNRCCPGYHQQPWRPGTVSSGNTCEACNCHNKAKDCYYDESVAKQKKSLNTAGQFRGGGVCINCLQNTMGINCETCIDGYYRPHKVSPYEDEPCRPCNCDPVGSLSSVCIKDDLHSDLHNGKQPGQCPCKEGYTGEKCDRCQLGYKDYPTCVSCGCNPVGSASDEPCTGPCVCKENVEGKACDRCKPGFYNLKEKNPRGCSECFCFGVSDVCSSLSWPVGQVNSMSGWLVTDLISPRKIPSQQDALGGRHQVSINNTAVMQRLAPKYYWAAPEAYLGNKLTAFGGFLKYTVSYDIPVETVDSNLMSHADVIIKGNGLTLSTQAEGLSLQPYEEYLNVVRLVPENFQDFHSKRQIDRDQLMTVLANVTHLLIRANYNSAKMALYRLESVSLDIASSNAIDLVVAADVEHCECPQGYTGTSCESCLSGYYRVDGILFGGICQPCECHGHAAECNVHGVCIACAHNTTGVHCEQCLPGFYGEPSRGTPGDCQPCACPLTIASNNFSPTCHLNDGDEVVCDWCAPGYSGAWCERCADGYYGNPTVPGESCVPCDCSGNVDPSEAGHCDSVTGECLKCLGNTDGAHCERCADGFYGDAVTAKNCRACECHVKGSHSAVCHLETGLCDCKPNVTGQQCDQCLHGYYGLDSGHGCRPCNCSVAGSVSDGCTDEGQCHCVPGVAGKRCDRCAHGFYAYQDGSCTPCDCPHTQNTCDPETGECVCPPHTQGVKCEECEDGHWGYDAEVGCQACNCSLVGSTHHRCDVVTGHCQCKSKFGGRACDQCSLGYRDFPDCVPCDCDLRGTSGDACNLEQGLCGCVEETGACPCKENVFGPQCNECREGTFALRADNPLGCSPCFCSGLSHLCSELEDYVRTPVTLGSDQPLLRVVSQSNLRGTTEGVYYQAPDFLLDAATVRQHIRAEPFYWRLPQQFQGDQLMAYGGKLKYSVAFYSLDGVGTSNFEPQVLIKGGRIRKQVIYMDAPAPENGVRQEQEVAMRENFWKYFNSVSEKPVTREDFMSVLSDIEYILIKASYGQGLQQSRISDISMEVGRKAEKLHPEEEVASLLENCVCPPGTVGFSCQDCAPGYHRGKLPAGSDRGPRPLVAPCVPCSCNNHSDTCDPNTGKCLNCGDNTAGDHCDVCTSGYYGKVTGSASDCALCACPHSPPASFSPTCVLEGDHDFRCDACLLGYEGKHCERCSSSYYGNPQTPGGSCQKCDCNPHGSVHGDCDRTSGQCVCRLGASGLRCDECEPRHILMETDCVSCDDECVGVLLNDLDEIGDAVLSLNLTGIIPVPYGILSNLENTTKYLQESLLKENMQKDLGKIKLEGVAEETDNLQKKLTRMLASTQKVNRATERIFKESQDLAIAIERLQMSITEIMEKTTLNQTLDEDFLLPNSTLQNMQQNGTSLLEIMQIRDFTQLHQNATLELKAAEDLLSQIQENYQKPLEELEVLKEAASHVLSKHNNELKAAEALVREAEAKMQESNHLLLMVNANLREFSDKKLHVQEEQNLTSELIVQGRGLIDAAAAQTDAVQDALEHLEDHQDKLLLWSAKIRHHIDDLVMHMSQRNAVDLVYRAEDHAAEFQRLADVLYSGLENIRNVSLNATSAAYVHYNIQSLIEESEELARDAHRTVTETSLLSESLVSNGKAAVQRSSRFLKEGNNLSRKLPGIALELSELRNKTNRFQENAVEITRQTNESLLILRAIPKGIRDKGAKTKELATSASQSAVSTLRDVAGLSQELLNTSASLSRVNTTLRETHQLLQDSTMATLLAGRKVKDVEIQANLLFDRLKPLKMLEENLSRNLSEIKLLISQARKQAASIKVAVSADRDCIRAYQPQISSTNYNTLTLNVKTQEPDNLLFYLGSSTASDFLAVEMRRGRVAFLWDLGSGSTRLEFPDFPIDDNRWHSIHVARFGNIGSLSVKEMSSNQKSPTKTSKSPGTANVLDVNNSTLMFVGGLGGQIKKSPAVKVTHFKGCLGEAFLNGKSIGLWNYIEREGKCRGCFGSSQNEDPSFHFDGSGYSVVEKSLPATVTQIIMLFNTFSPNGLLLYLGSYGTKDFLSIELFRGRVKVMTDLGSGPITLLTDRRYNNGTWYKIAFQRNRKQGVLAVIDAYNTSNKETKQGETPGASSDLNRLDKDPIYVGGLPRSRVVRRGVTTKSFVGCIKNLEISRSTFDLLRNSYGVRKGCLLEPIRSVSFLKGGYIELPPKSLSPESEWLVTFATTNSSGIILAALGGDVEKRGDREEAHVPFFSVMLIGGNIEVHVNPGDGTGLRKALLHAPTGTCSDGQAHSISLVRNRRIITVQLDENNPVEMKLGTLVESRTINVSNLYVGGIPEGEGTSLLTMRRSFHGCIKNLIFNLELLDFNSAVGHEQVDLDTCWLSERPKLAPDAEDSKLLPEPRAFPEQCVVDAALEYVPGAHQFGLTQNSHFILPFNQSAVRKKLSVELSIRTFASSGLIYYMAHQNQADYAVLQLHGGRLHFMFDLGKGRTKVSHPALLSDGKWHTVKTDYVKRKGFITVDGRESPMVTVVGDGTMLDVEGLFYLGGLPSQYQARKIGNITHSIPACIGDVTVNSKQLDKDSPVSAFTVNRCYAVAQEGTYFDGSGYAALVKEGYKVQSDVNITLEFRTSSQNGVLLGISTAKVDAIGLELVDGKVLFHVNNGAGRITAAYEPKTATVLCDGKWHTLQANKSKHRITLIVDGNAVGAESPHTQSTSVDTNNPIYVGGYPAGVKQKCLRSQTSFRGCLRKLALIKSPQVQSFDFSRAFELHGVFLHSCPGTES
Chain of Lactotransferrin (Homo sapiens) (P02788 whole entry): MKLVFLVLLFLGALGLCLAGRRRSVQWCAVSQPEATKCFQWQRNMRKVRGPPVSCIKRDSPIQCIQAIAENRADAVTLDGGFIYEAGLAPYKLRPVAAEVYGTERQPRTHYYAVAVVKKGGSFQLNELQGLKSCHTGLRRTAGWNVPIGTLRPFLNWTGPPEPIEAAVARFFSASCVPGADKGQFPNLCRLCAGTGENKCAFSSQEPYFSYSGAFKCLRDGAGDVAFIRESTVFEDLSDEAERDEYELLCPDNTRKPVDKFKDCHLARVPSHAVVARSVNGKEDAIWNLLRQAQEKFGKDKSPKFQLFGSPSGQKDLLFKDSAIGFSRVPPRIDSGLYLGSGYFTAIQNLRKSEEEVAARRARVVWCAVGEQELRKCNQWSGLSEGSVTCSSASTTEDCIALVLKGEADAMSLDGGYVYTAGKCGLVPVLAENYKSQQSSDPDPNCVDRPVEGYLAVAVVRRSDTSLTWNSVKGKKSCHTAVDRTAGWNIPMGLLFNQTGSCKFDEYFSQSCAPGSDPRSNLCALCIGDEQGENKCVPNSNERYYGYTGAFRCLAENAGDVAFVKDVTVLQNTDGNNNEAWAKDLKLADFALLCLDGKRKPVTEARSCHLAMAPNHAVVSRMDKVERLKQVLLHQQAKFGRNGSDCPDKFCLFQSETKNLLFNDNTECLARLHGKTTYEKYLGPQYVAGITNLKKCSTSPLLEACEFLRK

Row | SMILES | Activity [1] | Activity (Homo sapiens [2]) | Activity [3] | Activity (Homo sapiens [4]) | Activity (Canavalia ensiformis) | Activity [5] | Activity (Erythrina crista-galli) | Activity [6] | Activity [7] | Activity (Datura stramonium) | Activity (Triticum aestivum) | Activity [8] | Activity (Maackia amurensis) | Activity (Arachis hypogaea)
1 | CC[C@H](C)[C@H](NC(=O)[C@H](C)NC(=O)CNC(=O)[C@H](CCCNC(=N)N)NC(=O)[C@@H](NC(=O)CCCC(C)=O)[C@@H](C)O)C(=O)N[C@H](C(=O)N[C@@H](CCC(N)=O)C(=O)N[C@H](C(=O)N1CCC[C@H]1C(=O)N[C@H](C(=O)N[C@@H](CC(C)C)C(=O)NCC(=O)N1CCC[C@H]1C(=O)N[C@H](C(=O)N[C@@H](CCC(N)=O)C(=O)N1CCC[C@H]1C(=O)N[C@H](C(=O)N[C@@H](CCCNC(=N)N)C(=O)N[C@H](C(N)=O)C(C)C)[C@@H](C)O[C@H]1O[C@H](CO)[C@@H](O)[C@H](O)[C@@H]1O[C@@H]1O[C@H](CO)[C@@H](O[C@@H]2O[C@H](CO)[C@H](O)[C@H](O[C@]3(C(=O)O)C[C@H](O)[C@@H](NC(C)=O)[C@H]([C@H](O)[C@H](O)CO)O3)[C@H]2O)[C@H](O)[C@H]1NC(C)=O)[C@@H](C)CC)[C@@H](C)O)[C@@H](C)O[C@H]1O[C@H](CO)[C@@H](O)[C@H](O)[C@@H]1O[C@@H]1O[C@H](CO)[C@@H](O[C@@H]2O[C@H](CO)[C@H](O)[C@H](O[C@]3(C(=O)O)C[C@H](O)[C@@H](NC(C)=O)[C@H]([C@H](O)[C@H](O)CO)O3)[C@H]2O)[C@H](O)[C@H]1NC(C)=O)[C@@H](C)CC ({Hexanoyl(5-oxo)}-TRGAIIQT(X1)PTLGPIQPT(X1)RV-NH2) | Active | Active | Active | inactive | Active | inactive | Active | Active | Active | inactive | Active | Active | inactive | Active
2 | CC[C@H](C)[C@H](NC(=O)[C@H](C)NC(=O)CNC(=O)[C@H](CCCNC(=N)N)NC(=O)[C@@H](NC(=O)CCCC(C)=O)[C@@H](C)O)C(=O)N[C@H](C(=O)N[C@@H](CCC(N)=O)C(=O)N[C@H](C(=O)N1CCC[C@H]1C(=O)N[C@H](C(=O)N[C@@H](CC(C)C)C(=O)NCC(=O)N1CCC[C@H]1C(=O)N[C@H](C(=O)N[C@@H](CCC(N)=O)C(=O)N1CCC[C@H]1C(=O)N[C@H](C(=O)N[C@@H](CCCNC(=N)N)C(=O)N[C@H](C(N)=O)C(C)C)[C@@H](C)O[C@H]1O[C@H](CO)[C@@H](O)[C@H](O)[C@@H]1O[C@@H]1O[C@H](CO)[C@@H](O[C@@H]2O[C@H](CO)[C@H](O)[C@H](O)[C@H]2O)[C@H](O)[C@H]1NC(C)=O)[C@@H](C)CC)[C@@H](C)O[C@H]1O[C@H](CO)[C@@H](O)[C@H](O)[C@@H]1O[C@@H]1O[C@H](CO)[C@@H](O[C@@H]2O[C@H](CO)[C@H](O)[C@H](O[C@]3(C(=O)O)C[C@H](O)[C@@H](NC(C)=O)[C@H]([C@H](O)[C@H](O)CO)O3)[C@H]2O)[C@H](O)[C@H]1NC(C)=O)[C@@H](C)O)[C@@H](C)CC ({Hexanoyl(5-oxo)}-TRGAIIQTPT(X1)LGPIQPT(X2)RV-NH2) | Active | Active | Active | inactive | Active | inactive | Active | Active | Active | inactive | Active | Active | inactive | Active
